# Assay results from paper PMC7794433, “Peptide signaling without feedback in signal production operates as a true quorum sensing communication system in Bacillus subtilis” (Communications Biology, 2021).
# Entries after “also recorded” stand apart in the source; their conditions may differ.
# Columns and labels:
# B. subtilis proteases [1] = settings: 24 h MSgg spent medium of PS-216 wt; 24 h incubation; ref Spacapan et al.22; cited from earlier work
# Text: page 5: cells per unit volume (cell density), N(t) , and the time cells were producing the molecule, t . The molecule of interest can potentially get degraded by the degradation rate γ(t ). […] The protease content of CM growth medium used in t ...
# [2] = tested on: srfA promoter in B. subtilis PS-216 (∆comQ, PsrfAA-yfp); assay: srfA promoter response (Yfp fluorescence per cell) to exogenously added ComX; format: cell-based, Bacillus subtilis
# Description: In our model, the expression level of the srfA operon serves as a measure for the response (RM) to the signal molecule SM, represented by ComX. To study how RM depends on SM we evaluated promoter activity of srfA in the B. subtilis PS-216 (∆comQ, PsrfAA-yfp), which carries the markerless deletion of comQ[42] and is therefore signal-deficient. […] The response to SM was sigmoidal. […] We have therefore taken the 4 hours response curve (Fig. 4a) as a reference for further communication system analysis. The sigmoidal functions can typically describe the relationship between transcription factors and promoter activities, and can be modeled by the Hill equation[43],[44]. […] This agrees with the research showing that two molecules of the ComA homodimer cooperatively bind to the two promoter regions located upstream of the RNAP binding sites of srfA[13],[20],[45].
# To quantify a response (RM) to different signal molecule (SM) concentrations at the population level we used the signal deficient B. subtilis PS-216 (∆comQ PsrfAA-yfp), which carries the comQ marker-less deletion and the srfA promoter tagged with the Yfp fluorescent reporter (Supplementary Table 1).
# (final concentration of 50 µg mL^–1). […] The plate was placed on a microtiter plate shaker (1 mm orbit, 1100 rpm) that was positioned in the humidified chamber to eliminate sample evaporation. To improve the homogeneity of the conditions (airflow, temperature) on the microtiter plate the microtiter plate lids were elevated by 2 mm relative to the surface of microtiter plate. The plates were incubated at 37 °C for 3, 4, or 6 h. The cells were then re-suspended and fixed in 200 µL of 1% agarose containing DAPI dye (6 µg mL^−1).
# For quantitative analysis we used laser confocal fluorescence microscopy (Zeiss, LSM 800). The images were acquired by two laser channels—488 nm laser for acquiring fluorescence from Yfp protein and 405 nm laser to acquire fluorescence from DAPI dye. The acquired images were 1024 × 1024 pixels in size with 16-bit color depth at 20× optical magnification (objective 20×/NA 0.4, Zeiss) and were analyzed with Fiji-ImageJ[59] custom script. Four images per well of microtiter plate were taken, each image contained about 350 cells. The measure for amount of Yfp on image was integrated density i.e., the product of mean fluorescence intensity and area taken by the cells. The response per cell was quantified as the ratio of image integrated density by the number of cells obtained from DAPI image.
# The analytical form of the model equation for response per cell to the signal during bacterial growth in the fermenter batch system (Eq. 3, eq S11) was derived and fitted to the experimental data by the help of Wolfram Mathematica 11.0 (Wolfram Research, Inc.). […]
# B. subtilis proteases [3] = assay: Biological degradation of ComX in B. subtilis spent medium; format: in vitro ADME, Bacillus subtilis; settings: spent CM medium max 7 h old; assumption from low protease content
# Description: cells per unit volume (cell density), N(t) , and the time cells were producing the molecule, t . The molecule of interest can potentially get degraded by the degradation rate γ(t ). In the differential form and as a function of time one can express concentration of signal molecule SM(t) as:
# dddddd (tt ) = PPdddd (tt ) NN (tt ) − γγ (tt )SSSS (tt ) eq S1 […]
# spent medium obtained after 24 h of incubation with PS -216 wt (when the proteases accumulated in enough high concentration). In our case, however, the spent media were maxi mal 7 h old and the protease content of spent CM growth medium used in current study […]
# (Supplementary Fig. 7). Therefore , we assumed that biological degradation of SM (ComX) is negligible under conditions in this study. Under the buffered conditions (as in CM growth […]
# experiments where we applied our model. Therefore, in our modeling we assumed that degradation rate of SM is negligible (γ(t) ≈ 0) and the eq S 1 can be simplified to: […]
# Normalized fluorescence intensity per cell Normalized fluorescence intensity per cell
# Supplementary Figure 8: The second replicate (for first replicate, see Fig 5g,h) of the distribution of gene expression measured by single cell fluorescence microscopy. Gene expression level was measured as Na-fluoresceinate standard normalized mean fluorescence intensity per cells expressing comQ -yfp (a) and srfA -cfp (b). […]
# [4] = tested on: ComX biosensor BD2876 (ΔcomQ, srfA-lacZ); assay: β-galactosidase response of ComX biosensor BD2876 to spent medium or added ComX; format: cell-based, Bacillus subtilis; settings: ≈1 nM ComX in PS-216 ΔcomQ spent medium (positive control)
# [5] = Aging of purified ComX stock solution followed by HPLC; format: physicochemical; settings: 4 °C
# Description: spectrometer (Bruker, Germany). FlexControl 3.3 software (Bruker, Germany) was used to control the instrument, FlexAnalysis 3.3 to process data and to calibrate spectra (Bruker, […]
# two-sided), for about 2-fold compared to the original medium (Fig. S6b ). To further increase […]
# recombinant proteins in E. coli and gained altogether significant 5-fold increase (P < 0.0001, t-value= 9.6, two- sided) compared to the original medium. The overnight LB E. coli ED367 culture, supplemented with 100 µg/mL of Amp, grown in 37 °C (200 rpm), was transferred to fresh TB medium (1 % inoculum) supplemented by 20 mM MgCl2 and 100 µg/mL of Amp.
# After about 2 h and 45 min of incubation at 37 °C (200 rpm) when culture reached OD650 of […]., the spent growth medium was removed by culture centrifugation (5000 g, 5 min, room temperature). […]
# β-galactosidase assay. […] To improve the sensitivity of the assay, the plates were then warmed to 30 °C, 25 μL ortho- nitrophenyl-β-galactoside (ONPG) substrate (8 mg/mL) was added and the absorbance (420 nm) in 1 min intervals was read using a Multiscan Spectrum […]
# Supplementary Figure 5: Maximum normalized response measured as the srfA promoter activity of B. subtilis PS-216 (∆comQ, PsrfAA -yfp) (no signal production) to the exogenously added signal molecule, SM, (ComX). […]
# SS buffer at 4 °C as measured by HPLC. […]
sequence,measurement,setting,value
"ADPITRQWGD [ComX, isoprenylated (farnesylated) quorum sensing signal peptide of B. subtilis, HPLC purified from E. coli ED367]",Degradation in MSgg spent medium,B. subtilis proteases [1],significant level only after incubating ComX for 24 h; also recorded: can degrade
same,ComX concentration at which the highest response value is reached,"[2]; 37 °C, CM medium, n = 4",around 10 nM
same,Shape of response to ComX,"[2]; 4 h incubation, exogenously added ComX",sigmoidal
same,"Lower limit response (LLR), critical ComX concentration required to induce quantifiable response","[2]; first significantly positive response (lower 95% confidence level > 0), 37 °C, CM medium",0.2 to 0.5 nM
same,Km,"[2]; read-out: Km, ComX concentration at which half of the maximum response is achieved, Hill fit (Eq. 2) of srfA promoter Yfp fluorescence per cell, CM medium, 37 °C, 3, 4 or 6 h incubation, BSA added, n = 4",3 to 5 nM
same,Biological degradation in spent CM medium,B. subtilis proteases [3],negligible
same,Biosensor BD2876 response to added purified ComX,[4],strongly responded
same,Half-life time of ComX,"[5]; purified ComX stock (typically 200 nM) in SS buffer with BSA 50 μg/mL, n = 8 independent experiments",about 50 days
same,Chemical stability,"[5]; purified ComX, SS buffer",strong chemical stability
